Measurements: US20240043427A1 (Gilead Sciences, Inc., priority 2020, published 2024)
“And” between values parts separate entries of the source, which are not always exact repeats. Equal entries are not always repeated.

Legend:
CD73 [1] = molecular target: T1, CD73 (Homo sapiens (Human), UniProt P21589); experiment: CD73 Biochemical IC50 Assay; settings: CD73 0.3 nM, AMP 15 uM, 25 mM Tris pH 7.4, 5 mM MgCl2
Procedure: CD73 Biochemical IC50 Assay
Compound serial dilutions were pre-spotted into Thermo Nunc assay plate. 50 μL CD73 enzyme buffer (CD73 purchased from R&D system=0.6 nM, 25 mM Tris, pH 7.4, 5 mM MgCl2) was added into the assay plate and incubated for 15 mins. […] The samples were run using Rapid fire.

CD73 [2] = molecular target: T1, CD73; experiment: MDA-MB-231 Cell Based CD73 Activity Assay; settings: MDA-MB-231-GFP cells, RPMI medium with 10% human plasma, 200 uM AMP
Procedure: MDA-MB-231 Cell Based CD73 Activity Assay
MDA-MB-231-GFP cells were seeded in 384-well plates (Greiner 781946) at a density of 10000 cells per well in 50 μL of RPMI medium with 10% HP (human plasma). Cells were plated into assay plate with compounds pre-spotted, for an overnight compound treatment. 50 μL of 400 μM AMP (final concentration 200 μM) using a Bio-tek dispenser. Plates were incubated for 100 mins. […] The samples were run using Rapid fire.

CD73 [3] = molecular target: T1, CD73; experiment: MDA-MB-231 Cell Based CD73 Activity Assay (DMEM); settings: MDA-MB-231-GFP cells, DMEM medium with 10% human plasma, 200 uM AMP

T1 sequence (P21589 27-574): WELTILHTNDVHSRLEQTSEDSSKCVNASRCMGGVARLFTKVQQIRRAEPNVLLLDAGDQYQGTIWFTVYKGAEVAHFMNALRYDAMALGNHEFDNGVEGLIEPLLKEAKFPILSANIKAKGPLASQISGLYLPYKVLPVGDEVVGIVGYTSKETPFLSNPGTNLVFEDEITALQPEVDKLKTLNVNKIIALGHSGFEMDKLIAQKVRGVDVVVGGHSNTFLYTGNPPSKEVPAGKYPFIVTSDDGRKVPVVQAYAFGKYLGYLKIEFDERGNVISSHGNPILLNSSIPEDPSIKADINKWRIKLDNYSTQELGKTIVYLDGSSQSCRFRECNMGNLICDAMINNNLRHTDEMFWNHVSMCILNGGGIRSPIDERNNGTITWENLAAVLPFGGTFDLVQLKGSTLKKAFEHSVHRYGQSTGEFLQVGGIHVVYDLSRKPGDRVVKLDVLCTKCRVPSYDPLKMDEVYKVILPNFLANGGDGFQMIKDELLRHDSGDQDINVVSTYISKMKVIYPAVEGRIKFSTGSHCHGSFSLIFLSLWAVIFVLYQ

Compound: 5-(8-((1S,2S)-2-(2,3,5-trifluorophenyl)cyclopropyl)imidazo[1,2-b]pyridazin-6-yl)pyrimidine-2,4(1H,3H)-dione and 5-(8-((1R,2R)-2-(2,3,5-trifluorophenyl)cyclopropyl)imidazo[1,2-b]pyridazin-6-yl)pyrimidine-2,4(1H,3H)-dione [Example 61]
- IC50 (CD73 [1]): 12.1 nM
- EC50 (CD73 [2]): 16.6 nM

Compound: O=c1[nH]cc(-c2cc(C3CC3)c3nc(-c4ccccc4C(F)(F)F)cn3n2)c(=O)[nH]1 [Example 96, 5-(8-cyclopropyl-2-(2-(trifluoromethyl)phenyl)imidazo[1,2-b]pyridazin-6-yl)pyrimidine-2,4(1H,3H)-dione]
- IC50 (CD73 [1]): 773 nM
- EC50 (CD73 [2]): 66.6 nM

Compound: O=c1[nH]cc(-c2cc(C3CC3)c3nc(-c4ccncc4)cn3n2)c(=O)[nH]1 [Example 97, 5-(8-cyclopropyl-2-(pyridin-4-yl)imidazo[1,2-b]pyridazin-6-yl)pyrimidine-2,4(1H,3H)-dione]
- IC50 (CD73 [1]): > 2500 nM
- EC50 (CD73 [2]): 2050 nM

Compound: 5-(8-((1S,2S)-2-phenylcyclopropyl)imidazo[1,2-b]pyridazin-6-yl)pyrimidine-2,4-(1H,3H)-dione and 5-(8-((1R,2R)-2-phenylcyclopropyl)imidazo[1,2-b]pyridazin-6-yl)pyrimidine-2,4-(1H,3H)-dione [Example 104]
- IC50 (CD73 [1]): 196 nM
- EC50 (CD73 [2]): 23.2 nM

Compound: O=c1[nH]cc(-c2cc(N3CCC(c4ccc(F)cc4)C3)c3nccn3n2)c(=O)[nH]1 (stereo in doubt) [Example 68, 5-[8-[(3S)-3-(4-fluorophenyl)pyrrolidin-1-yl]imidazo[1,2-b]pyridazin-6-yl]-1H-pyrimidine-2,4-dione]
- IC50 (CD73 [1]): 69.5 nM
- EC50 (CD73 [2]): 67.5 nM

Compound: CC1(C)CCN(c2cc(-c3c[nH]c(=O)[nH]c3=O)nc3ccnn23)C1 [Example 91, 5-(7-(3,3-dimethylpyrrolidin-1-yl)pyrazolo[1,5-a]pyrimidin-5-yl)pyrimidine-2,4(1H,3H)-dione]
- IC50 (CD73 [1]): 104 nM
- EC50 (CD73 [2]): 62.2 nM

Compound: O=c1[nH]cc(-c2cc([C@H]3C[C@@H]3c3ccc(C4CC4)cc3)c3nccn3n2)c(=O)[nH]1 (racemic) [Example 45, 5-(8-((1S,2S)-2-(4-cyclopropylphenyl)cyclopropyl)imidazo[1,2-b]pyridazin-6-yl)pyrimidine-2,4(1H,3H)-dione and 5-(8-((1R,2R)-2-(4-cyclopropylphenyl)cyclopropyl)imidazo[1,2-b]pyridazin-6-yl)pyrimidine-2,4(1H,3H)-dione]
- IC50 (CD73 [1]): 32.6 nM
- EC50 (CD73 [2]): 6.59 nM

Compound: Cc1nc2c(C3CCC(F)(F)CC3)cc(-c3c[nH]c(=O)[nH]c3=O)nn2n1 [Example 55, 5-(8-(4,4-difluorocyclohexyl)-2-methyl-[1,2,4]triazolo[1,5-b]pyridazin-6-yl)pyrimidine-2,4(1H,3H)-dione]
- IC50 (CD73 [1]): > 2500 nM
- EC50 (CD73 [2]): 872 nM

Compound: O=c1[nH]cc(-c2cc(NCc3ccccc3)c3nccn3n2)c(=O)[nH]1 [Example 12, 5-(8-(benzylamino)imidazo[1,2-b]pyridazin-6-yl)pyrimidine-2,4(1H,3H)-dione]
- IC50 (CD73 [1]): 479 nM and 653 nM
- EC50 (CD73 [2]): 508 nM and 689 nM

Compound: O=c1[nH]cc(-c2cc([C@H]3C[C@@H]3C3CC3)c3nccn3n2)c(=O)[nH]1 (racemic) [Example 8, 5-(8-((1R,2S)-[1,1′-bi(cyclopropan)]-2-yl)imidazo[1,2-b]pyridazin-6-yl)pyrimidine-2,4(1H,3H)-dione and 5-(8-((1S,2R)-[1,1′-bi(cyclopropan)]-2-yl)imidazo[1,2-b]pyridazin-6-yl)pyrimidine-2,4(1H,3H)-dione]
- IC50 (CD73 [1]): 29 nM and 45.8 nM
- EC50 (CD73 [2]): 36.1 nM and 47.2 nM

Compound: O=c1[nH]cc(-c2cc(N3C[C@@H](F)[C@@H](F)C3)c3nccn3n2)c(=O)[nH]1 [Example 77, 5-[8-[(3S,4R)-3,4-difluoropyrrolidin-1-yl]imidazo[1,2-b]pyridazin-6-yl]-1H-pyrimidine-2,4-dione and 5-[8-[(3R,4S)-3,4-difluoropyrrolidin-1-yl]imidazo[1,2-b]pyridazin-6-yl]-1H-pyrimidine-2,4-dione]
- EC50 (CD73 [2]): 13.4 nM
- EC50 (CD73 [3]): 28.4 nM

Compound: O=c1[nH]cc(-c2cc([C@H]3C[C@@H]3c3cccc(OC(F)(F)F)c3)c3nccn3n2)c(=O)[nH]1 (racemic) [Example 47, 5-(8-((1S,2S)-2-(3-(trifluoromethoxy)phenyl)cyclopropyl)imidazo[1,2-b]pyridazin-6-yl) pyrimidine-2,4(1H,3H)-dione and 5-(8-((1R,2R)-2-(3-(trifluoromethoxy)phenyl)cyclopropyl)imidazo[1,2-b]pyridazin-6-yl) pyrimidine-2,4(1H,3H)-dione]
- IC50 (CD73 [1]): 47.2 nM
- EC50 (CD73 [2]): 13.7 nM

Compound: O=c1[nH]cc(-c2cc(C3CC3)c3nc(-c4ccccc4)cn3n2)c(=O)[nH]1 [Example 2, 5-(8-cyclopropyl-2-phenyl-imidazo[1,2-b]pyridazin-6-yl)-1H-pyrimidine-2,4-dione]
- IC50 (CD73 [1]): 32.4 nM
- EC50 (CD73 [2]): 53.3 nM

Compound: O=c1[nH]cc(-c2ccc3nccn3n2)c(=O)[nH]1 [Example 23, 5-(imidazo[1,2-b]pyridazin-6-yl)pyrimidine-2,4(1H,3H)-dione]
- IC50 (CD73 [1]): > 2500 nM
- EC50 (CD73 [2]): > 25000 nM

Compound: O=c1[nH]cc(-c2cc([C@H]3C[C@@H]3c3cc(F)cc(F)c3)c3nccn3n2)c(=O)[nH]1 (racemic) [Example 60, 5-(8-((1S,2S)-2-(3,5-difluorophenyl)cyclopropyl)imidazo[1,2-b]pyridazin-6-yl)pyrimidine-2,4(1H,3H)-dione and 5-(8-((1R,2R)-2-(3,5-difluorophenyl)cyclopropyl)imidazo[1,2-b]pyridazin-6-yl)pyrimidine-2,4(1H,3H)-dione]
- IC50 (CD73 [1]): 12.6 nM
- EC50 (CD73 [2]): 6.43 nM

Compound: N#Cc1cc([C@H]2C[C@@H]2c2cc(-c3c[nH]c(=O)[nH]c3=O)nn3ccnc23)ccc1F (mixture of isomers) [Example 64, 5-((1S,2S)-2-(6-(2,4-dioxo-1,2,3,4-tetrahydropyrimidin-5-yl)imidazo[1,2-b]pyridazin-8-yl)cyclopropyl)-2-fluorobenzonitrile and 5-((1R,2R)-2-(6-(2,4-dioxo-1,2,3,4-tetrahydropyrimidin-5-yl)imidazo[1,2-b]pyridazin-8-yl)cyclopropyl)-2-fluorobenzonitrile]
- EC50 (CD73 [2]): 2.87 nM
- EC50 (CD73 [3]): 7.67 nM

Compound: O=c1[nH]cc(-c2cc([C@H]3C[C@@H]3c3ccc(C(F)(F)F)c(F)c3)c3nccn3n2)c(=O)[nH]1 (mixture of isomers) [Example 100, 5-(8-((1S,2S)-2-(3-fluoro-4-(trifluoromethyl)phenyl)cyclopropyl)imidazo[1,2-b]pyridazin-6-yl)pyrimidine-2,4(1H,3H)-dione and 5-(8-((1R,2R)-2-(3-fluoro-4-(trifluoromethyl)phenyl)cyclopropyl)imidazo[1,2-b]pyridazin-6-yl)pyrimidine-2,4(1H,3H)-dione]
- EC50 (CD73 [2]): 27.5 nM

Compound: O=c1[nH]cc(-c2cc([C@H]3C[C@@H]3C(F)(F)F)c3nccn3n2)c(=O)[nH]1 (mixture of isomers) [Example 107, 5-(8-((1S,2S)-2-(trifluoromethyl)cyclopropyl)imidazo[1,2-b]pyridazin-6-yl)pyrimidine-2,4(1H,3H)-dione and 5-(8-((1R,2R)-2-(trifluoromethyl)cyclopropyl)imidazo[1,2-b]pyridazin-6-yl)pyrimidine-2,4(1H,3H)-dione]
- EC50 (CD73 [2]): 55 nM
